In patent publication US20250388589A1, “TRICYCLIC HETEROCYCLIC DERIVATIVES, COMPOSITIONS AND USES THEREOF” (Danatlas Pharmaceuticals Co., Ltd., priority 2022, published 2025):

What was measured:
[1] = test system: Kuramochi cell line; assay: Cell Viability Assay (Cell Titer-Glo, 7 days); assay type: cell-based; settings: 168 h, Kuramochi cells, 7 days incubation, read-out: PARG Cell viability (IC50)
Method: Cell viability studies were conducted in Kuramochi cell line. Cells were maintained in RPMI (Hyclone, Catalog #: SH3080901B) supplemented with 10% v/v FBS (AusGeneX, Catalog #: FBS500-S), 1% v/v Penicillin Streptomycin (Gibco, Catalog #: 15140122). Cells were seeded in 96-well plates (PerkinElmer, Catalog #: 6005680) at a density of 400 cells/well. Compounds dissolved in DMSO were plated in duplicate using a multichannel pipette, and tested on a 9-point 3-fold serial dilution. Cells were incubated for 7 days in a 37° C. active humidified incubator at 5% CO2. Cell viability was measured using the Cell Titer-Glo reagent (Promega, Catalog #: G7573) as manufacturer's instructions. Luminescence signal was measured with a multimode plate reader (Perkin Elmer, Envision 2105 or BMG, ClarioStar Plus). Average values of DMSO treated wells in a plate was calculated and as high control (HC). Average values of only medium in a plate was calculated and as low control (LC)
(§1) IC50 values were determined by fitting the data to the standard 4 parameters with Hill Slope using GraphPad Prism software.

[2] = target: hPARG (C-terminal His6-tag) (Homo sapiens (Human), UniProt Q86W56); assay: PARG Enzymatic Activity Assay (HTRF); assay type: biochemical; settings: hPARG 65 pM final, biotinylated-NAD ribosylated PARP1 8 nM final
Method: PARG Enzymatic Activity Assay HTRF assay was used to measure the ability of compounds to inhibit the activity of PARG in vitro. C-terminal His6-tag PARG expressed in E. coli was purified and stored at −80° C. in aliquots. Assay measurements were performed with 1×buffer comprising 50 mM Tris pH 7.4, 0.1 mg/mL BSA, 3 mM EDTA, 0.4 mM EGTA, 1 mM DTT, 50 mM KCl and 0.01% Tween 20.
Compounds dissolved in DMSO were plated into a 384-well assay plate (PerkinElmer, Catalog #: 6008280) in duplicate using a dispenser (Labcyte, Echo 665), and tested on a 10-point 4-fold serial dilution. Add 5 L Enzyme mix [hPARG (C-terminal His6-tag, 4.2 μM), 65 pM final] to the test wells. The plates were covered and left to incubate for 60 minutes at RT before the addition of 5 L substrate mix [biotinylated-NAD ribosylated PARP1 (6.1 μM), 8 nM final] to initiate reaction. After incubating 10 minutes at RT, add 2.5 L Streptavidin-Eu cryptate (Cisbio, Catalog #: 610SAKLA) and 2.5 L Mab anti 6HIS-XL665 (Cisbio, Catalog #: 61HISXLA) to the plate, and incubate for 60 minutes at RT. Read on a multimode plate reader (PerkinElmer, Envision 2015) in time-resolved fluorescence (TRF) mode, with excitation at 337 nm and emission at both 620 nm and 665 nm. Average HTRF signal of high control (Wells with 1% DMSO) was calculated and as Vehicle Control (VC). Average HTRF signal of low control (no Enzyme) was calculated and as Positive control (PC).
as §1

hPARG (C-terminal His6-tag), sequence (Q86W56 whole entry): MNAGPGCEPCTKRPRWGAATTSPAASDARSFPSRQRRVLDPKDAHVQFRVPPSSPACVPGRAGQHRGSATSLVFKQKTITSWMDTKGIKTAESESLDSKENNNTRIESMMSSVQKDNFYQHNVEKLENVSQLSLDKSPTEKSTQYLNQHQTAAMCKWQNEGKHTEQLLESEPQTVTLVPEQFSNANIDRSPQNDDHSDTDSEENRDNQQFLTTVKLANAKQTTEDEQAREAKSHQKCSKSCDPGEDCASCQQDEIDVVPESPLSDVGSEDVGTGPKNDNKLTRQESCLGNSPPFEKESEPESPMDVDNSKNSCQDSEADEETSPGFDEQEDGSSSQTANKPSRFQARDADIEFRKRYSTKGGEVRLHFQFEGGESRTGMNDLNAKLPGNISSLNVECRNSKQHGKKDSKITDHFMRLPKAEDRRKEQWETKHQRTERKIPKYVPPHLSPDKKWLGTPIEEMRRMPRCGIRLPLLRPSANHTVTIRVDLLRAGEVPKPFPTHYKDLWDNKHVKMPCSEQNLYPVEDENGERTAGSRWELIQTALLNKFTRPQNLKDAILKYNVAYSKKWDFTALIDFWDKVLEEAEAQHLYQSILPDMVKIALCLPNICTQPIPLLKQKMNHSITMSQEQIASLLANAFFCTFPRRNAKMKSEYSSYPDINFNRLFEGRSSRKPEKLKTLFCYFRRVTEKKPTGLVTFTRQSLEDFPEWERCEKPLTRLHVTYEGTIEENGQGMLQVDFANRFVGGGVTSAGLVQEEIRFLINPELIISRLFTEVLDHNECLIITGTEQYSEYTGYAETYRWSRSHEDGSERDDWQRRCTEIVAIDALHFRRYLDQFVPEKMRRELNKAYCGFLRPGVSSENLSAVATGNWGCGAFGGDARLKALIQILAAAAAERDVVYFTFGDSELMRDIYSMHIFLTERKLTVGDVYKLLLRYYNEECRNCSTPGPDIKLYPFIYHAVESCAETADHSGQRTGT

Compound | IC50 [1] [nM] | IC50 [2] [nM]
CO[C@H]1CCN(c2ncnc3c2c2ccc(S(=O)(=O)NC4(C#N)CC4)cc2n3-c2nnc(C(F)F)s2)C[C@@H]1F [Example 172, N-(1-cyanocyclopropyl)-9-(5-(difluoromethyl)-1,3,4-thiadiazol-2-yl)-4-((3S,4S)-3-fluoro-4-methoxypiperidin-1-yl)-9H-pyrimido[4,5-b]indole-7-sulfonamide] | < 100 | < 100
CN(C)C(=O)N1CC=C(c2ccnc3c2c2ccc(S(=O)(=O)NC4(C)CC4)cc2n3-c2nnc(C(F)F)s2)CC1 [Example 194, 4-(9-(5-(Difluoromethyl)-1,3,4-thiadiazol-2-yl)-7-(N-(1-methylcyclopropyl)sulfamoyl)-9H-pyrido[2,3-b]indol-4-yl)-N,N-dimethyl-3,6-dihydropyridine-1(2H)-carboxamide] | 100 to 1000 | 100 to 1000
N#CC1(NS(=O)(=O)c2ccc3c4c(N5CCN6C(=O)COC[C@H]6C5)ncnc4n(-c4nnc(C(F)F)s4)c3c2)CC1 [Example 168, (R)—N-(1-Cyanocyclopropyl)-9-(5-(difluoromethyl)-1,3,4-thiadiazol-2-yl)-4-(4-oxohexahydropyrazino[2,1-c][1,4]oxazin-8(1H)-yl)-9H-pyrimido[4,5-b]indole-7-sulfonamide] | < 100 | < 100
C[C@H]1CN(c2ncnc3c2c2ccc(S(=O)(=O)NC4(C#N)CC4)cc2n3-c2nnc(C(F)F)s2)CCN1CC#N [Example 205, (S)—N-(1-Cyanocyclopropyl)-4-(4-(cyanomethyl)-3-methylpiperazin-1-yl)-9-(5-(difluoromethyl)-1,3,4-thiadiazol-2-yl)-9H-pyrimido[4,5-b]indole-7-sulfonamide] | < 100 | < 100
N#CC1(NS(=O)(=O)c2ccc3c4c(C5CCN(C(=O)[C@H]6CCCN6)CC5)ncnc4n(-c4nnc(C(F)F)s4)c3c2)CC1 [Example 125, (R)-N-(1-cyanocyclopropyl)-9-(5-(difluoromethyl)-1,3,4-thiadiazol-2-yl)-4-(1-prolylpiperidin-4-yl)-9H-pyrimido[4,5-b]indole-7-sulfonamide] | 100 to 1000 | < 100
N#CC1(NS(=O)(=O)c2ccc3c4c(C5CCN(C(=O)C6(O)CC6)CC5)ncnc4n(-c4nnc(C(F)F)s4)c3c2)CC1 [Example 114, N-(1-cyanocyclopropyl)-9-(5-(difluoromethyl)-1,3,4-thiadiazol-2-yl)-4-(1-(1-hydroxycyclopropane-1-carbonyl)piperidin-4-yl)-9H-pyrimido[4,5-b]indole-7-sulfonamide] | 100 to 1000 | < 100
CN(C)C(=O)N1CC=C(c2ncnc3c2c2ccc(S(=O)(=O)NC4(C)CC4)cc2n3-c2nnc(C(F)F)s2)CC1 [Example 152, 4-(9-(5-(Difluoromethyl)-1,3,4-thiadiazol-2-yl)-7-(N-(1-methylcyclopropyl)sulfamoyl)-9H-pyrimido[4,5-b]indol-4-yl)-N,N-dimethyl-3,6-dihydropyridine-1(2H)-carboxamide] | < 100 | < 100
CC(C)CN1CCN(c2ncnc3c2c2ccc(S(=O)(=O)NC4(C#N)CC4)cc2n3-c2nnc(C(F)F)s2)CC1=O [Example 158, N-(1-cyanocyclopropyl)-9-(5-(difluoromethyl)-1,3,4-thiadiazol-2-yl)-4-(4-isobutyl-3-oxopiperazin-1-yl)-9H-pyrimido[4,5-b]indole-7-sulfonamide] | < 100 | < 100
CN(C)C(=O)N1CCC(c2ncnc3c2c2cc(F)c(S(=O)(=O)NC4(C#N)CC4)cc2n3-c2nnc(C(F)F)s2)CC1 [Example 89, 4-(7-(N-(1-Cyanocyclopropyl)sulfamoyl)-9-(5-(difluoromethyl)-1,3,4-thiadiazol-2-yl)-6-fluoro-9H-pyrimido[4,5-b]indol-4-yl)-N,N-dimethylpiperidine-1-carboxamide] | < 100 | < 100
CN(C)[C@@H]1CCN(C(=O)N2CCC(c3ncnc4c3c3ccc(S(=O)(=O)NC5(C#N)CC5)cc3n4-c3nnc(C(F)F)s3)CC2)C1 [Example 137, (R)-N-(1-Cyanocyclo-propyl)-9-(5-(difluoromethyl)-1,3,4-thiadiazol-2-yl)-4-(1-(3-(dimethylamino)pyrrolidine-1-carbonyl)piperidin-4-yl)-9H-pyrimido[4,5-b] indole-7-sulfonamide] | 100 to 1000 | < 100
CC(C)C(=O)N1CCN(c2ncnc3c2c2ccc(S(=O)(=O)NC4(C#N)CC4)cc2n3-c2nnc(C(F)F)s2)C[C@@H]1CO [Example 154, (R)—N-(1-Cyanocyclopropyl)-9-(5-(difluoromethyl)-1,3,4-thiadiazol-2-yl)-4-(3-(hydroxymethyl)-4-isobutyrylpiperazin-1-yl)-9H-pyrimido[4,5-b]indole-7-sulfonamide] | < 100 | < 100
N#CC1(NS(=O)(=O)c2ccc3c4c(N5CCN(C(=O)c6ccc(F)cc6)CC5)ncnc4n(-c4nnc(C(F)F)s4)c3c2)CC1 [Example 13, N-(1-Cyanocyclopropyl)-9-(5-(difluoromethyl)-1,3,4-thiadiazol-2-yl)-4-(4-(4-fluorobenzoyl)piperazin-1-yl)-9H-pyrimido[4,5-b]indole-7-sulfonamide] | 100 to 1000 | 100 to 1000
N#CC1(NS(=O)(=O)c2ccc3c4c(N5CCC6(CC5)COC6)ncnc4n(-c4nnc(C(F)F)s4)c3c2)CC1 [Example 20, N-(1-Cyanocyclopropyl)-9-(5-(difluoromethyl)-1,3,4-thiadiazol-2-yl)-4-(2-oxa-7-azaspiro[3.5]nonan-7-yl)-9H-pyrimido[4,5-b]indole-7-sulfonamide] | < 100 | < 100
CCN1CCN(c2ncnc3c2c2ccc(S(=O)(=O)NC4(C#N)CC4)cc2n3-c2nnc(C(F)F)s2)C[C@@H]1C [Example 163, (S)-N-(1-cyanocyclopropyl)-9-(5-(difluoromethyl)-1,3,4-thiadiazol-2-yl)-4-(4-ethyl-3-methylpiperazin-1-yl)-9H-pyrimido[4,5-b]indole-7-sulfonamide] | < 100 | 100 to 1000
CC(C)C(=O)N1CC2(C1)CN(c1ncnc3c1c1ccc(S(=O)(=O)NC4(C#N)CC4)cc1n3-c1nnc(C(F)F)s1)C2 [Example 23, N-(1-Cyanocyclopropyl)-9-[5-(difluoromethyl)-1,3,4-thiadiazol-2-yl]-4-[2-(2-methylpropanoyl)-2,6-diazaspiro[3.3]heptan-6-yl]pyrimido[4,5-b]indole-7-sulfonamide] | 100 to 1000 | < 100
CC(C)(C)C(=O)N1CCN(c2ncnc3c2c2ccc(S(=O)(=O)NC4(C#N)CC4)cc2n3-c2nnc(C(F)F)s2)CC1 [Example 3, N-(1-Cyanocyclopropyl)-9-(5-(difluoromethyl)-1,3,4-thiadiazol-2-yl)-4-(4-pivaloylpiperazin-1-yl)-9H-pyrimido[4,5-b]indole-7-sulfonamide] | < 100 | < 100
CC1(NS(=O)(=O)c2ccc3c4c(N5CCN(C(=O)C6CC6)CC5)ncnc4n(-c4nnc(C(F)F)s4)c3c2)CC1 [Example 1, 4-(4-(Cyclopropanecarbonyl)piperazin-1-yl)-9-(5-(difluoromethyl)-1,3,4-thiadiazol-2-yl)-N-(1-methylcyclopropyl)-9H-pyrimido[4,5-b]indole-7-sulfonamide] | 100 to 1000 | < 100
